In article PMC9413144, “Similar 5F-APINACA Metabolism between CD-1 Mouse and Human Liver Microsomes Involves Different P450 Cytochromes” (Metabolites, 2022):

Assays:
[1] = tested on: human CYPs in human liver microsomes; assay: Chemical inhibitor phenotyping of 5F-APINACA reactions, human liver microsomes; format: in vitro ADME; settings: 25 µM 5F-APINACA; for effect of inhibitor on formation of 5F-APINACA metabolites: 0.1 mg/mL HLM, 1000 µM ABT, 1 µM ketoconazole
Experimental: (§1) Inhibitor phenotyping experiments were carried out to qualitatively identify probable P450 isozymes catalyzing 5F-APINACA metabolic pathways present in our mouse and human liver microsome studies. Reactions contained 0.1 mg/mL protein (MLM or HLM), 25 µM 5F-APINACA, specific CYP inhibitors, 0.25% methanol, 1% acetonitrile, 1.0 mM NADPH-regenerating system, and 100 mM phosphate buffer, pH 7.4. […] For each experiment, the following were included as final concentrations: 10 µM furafylline for CYP1A2, 2 µM tranylcypromine (TCP) for CYP2A6, 3 µM ticlopidine (TIC) for CYP2B6, 16 µM montelukast (MTK) for CYP2C8, 10 µM sulfaphenazole (SPA) for CYP2C9, 16 µM (+)-N-3-benzylnirvanol (NBZ) for CYP2C19, 2 µM quinidine (QND) for CYP2D6, 30 µM 4-methylpyrazole (4MP) for CYP2E1, 1 µM ketoconazole (KCZ) for CYP3A4, and 1000 µM ABT for all CYPs. Each inhibitor stock solution (except FUR) was prepared in potassium phosphate buffer pH 7.4 with 1% acetonitrile (final) as a co-solvent. After a preincubation period of 15 min with shaking, the reactions were initiated with the addition of a NADPH-regenerating system and shaken. For FUR, the inhibitor was prepared in methanol and a microsomal reaction was carried out at 10 µM for 10 min prior to addition of 5F-APINACA. After 30 min, all reactions were quenched, processed, and analyzed by HPLC as previously described. The resultant values were normalized to reaction rates observed in absence of inhibitors to yield a percent inhibition value.
Sample reactions were analyzed to quantitate metabolites by absorbance. Analytes were separated on a Waters XBridge BEH C18 3.5 μM column (4.6 mm × 100 mm) using an Agilent 1100 series HPLC instrument equipped with a VWD detector (280 nm). The mobile phase consisted of solvent A (10% solvent B, 90% water) and solvent B (0.1% formic acid/acetonitrile). A gradient method started at 80% solvent A for the first minute, then decreased to 70% for the next 6 min. […] Parent drug and metabolite responses were normalized to the internal standard acenocoumarol and quantitated using a standard curve generated with 5OH-APINACA. The absorbance response corresponds to the indazole ring, which remained unmodified in these reactions, so that the relative absorbance response for all analytes were approximately the same, making inference for quantitation purposes possible.
(§2) Various statistical approaches were employed among the experimental studies to identify the most likely models for explaining the data or establish the significance of the findings. For the explicit kinetic models, the best-fit kinetic model and corresponding constants were determined using the extra sum-of-squares F test. […]

[2] = tested on: CD-1 mouse liver microsomes; assay: Steady-state kinetics for 5F-APINACA metabolism by CD-1 mouse liver microsomes; format: in vitro ADME
Experimental: (§3) The in vitro 5F-APINACA analyses relied on reactions with human liver microsomes 150 (HLM150) as a model for the average adult human liver and CD-1 mouse liver microsomes as the standard for SCB studies. In a 96-half-well microplate, reaction conditions included human or mouse liver microsomes in 100 mM potassium phosphate buffer pH 7.4, 0.1% methanol (co-solvent), and 5F-APINACA concentrations ranging from 0 to 250 µM. The microplates were preincubated for 15 min at 37 °C with shaking at 350 rpm using a BMG Labtech THERMOstar incubator (Ortenberg, Germany). The addition of an NADPH-regenerating system (4 U/mL glucose-6-phosphate dehydrogenase, 12 mM glucose 6-phosphate, 12 mM MgCl2, 4 mM NADP^+) initiated the reaction. Reactions were quenched by adding an equal volume of ice-cold acetonitrile containing an internal standard (2 μM acenocoumarol final). Samples were chilled on ice for 10 min to optimize precipitation of proteins in phosphate buffer. After 3500 rpm centrifugation at 4 °C for 15 min using a Sorvall ST 16R centrifuge (Thermo Scientific; Waltham, MA, USA), the supernatant was transferred to HPLC vials for HPLC analyses. Standards for metabolite quantifications were prepared with human or mouse liver microsomes in 100 mM potassium phosphate buffer pH 7.4, 0.1% methanol (co-solvent), and 5OH-APINACA concentrations ranging from 0 to 15 µM. The microplates were preincubated for 15 min at 37 °C with shaking at 350 rpm. Reactions were initiated upon addition of the NADPH-regenerating system or 100 mM potassium phosphate as a negative control. For kinetic studies, initial control experiments were carried out to determine the lowest protein concentration and optimal reaction time within the linear response range for all observed metabolites reflecting steady-state conditions. Each set of steady-state reactions were performed at least in triplicate and replicated two times at a minimum. The composition of reactions was determined by liquid chromatographic analysis involving detection of analytes via UV/visible absorbance and mass spectroscopy (Section 2.5).
(§4) We employed explicit equations and numerical methods to model kinetic profiles. In the first case, metabolite levels were used to calculate initial reaction rates for plotting against substrate concentration with GraphPad Prism 9.2 from GraphPad Software, Inc. (San Diego, CA, USA). […] For the numerical methods, ordinary differential equations (ODEs) describing single-substrate (ES) and multi-substrate (ESS) binding kinetics were initially used to fit the models to the primary metabolite formation datasets. The AICc was used to determine the most appropriate model for the same dataset. Predicted parameter estimates from the most appropriate model were then used as initial parameter estimates for a variety of enzyme–substrate–sequential metabolism (ESP1P2P3) models. Schemes included fast- and slow-release rates of metabolite P2 from the enzyme site, either after the first binding event, the second binding event, or both events. A final best-fit model was selected based on AICc values, weighted residuals, and parameter estimate errors. For comparison of all multi-substrate-sequential metabolism models, including the final integrated model, all metabolite data were used simultaneously for model fitting. All association rate constants were fixed at 270 μM^−1 min^−1. When any rate constant within the model had to be held constant, a sensitivity analysis was performed over a range of values to ensure the validity of the results. Based on preliminary model fitting attempts, consistent enzyme kinetic schemes were developed for fitting to both human and CD-1 mouse liver microsomal reaction datasets. Mathematica version 12.3 (Wolfram Research, Champaign, IL, USA) was used for model fitting. The ODEs were numerically solved with NDSolve to provide interpolated functions of each enzyme species. […]

[3] = tested on: pooled human liver microsomes (HLM150); assay: Steady-state kinetics for 5F-APINACA metabolism by pooled human liver microsomes; format: in vitro ADME
Experimental: as §3, §4

mice = tested on: mice; parameters: method as in PMID 30420360, PMID 32413436; settings: with 1-aminobenzotriazole (ABT); cited from earlier work
[4] = tested on: mouse Cyps in CD-1 mouse liver microsomes; assay: Chemical inhibitor phenotyping of 5F-APINACA reactions, CD-1 mouse liver microsomes; format: in vitro ADME; settings: 25 µM 5F-APINACA
Experimental: as §1, with “For FUR, the inhibitor was prepared in methanol and a microsomal reaction was carried out at 10 µM for 10 min prior to addition of 5F-APINACA.” left out, “The resultant values were normalized to reaction rates observed in absence of inhibitors to yield a percent inhibition value.” left out
Sample reactions were analyzed to quantitate metabolites by absorbance. […] Parent drug and metabolite responses were normalized to the internal standard acenocoumarol and quantitated using a standard curve generated with 5OH-APINACA. The absorbance response corresponds to the indazole ring, which remained unmodified in these reactions, so that the relative absorbance response for all analytes were approximately the same, making inference for quantitation purposes possible.
as §2

[5] = formation of the metabolite from 5F-APINACA, parentheses 95% confidence interval
[6] = global fit to differential rate equations, calculated from micro-rate constants, parentheses standard error
[7] = global fit to differential rate equations, parentheses standard error
[8] = global fit to differential rate equations, second substrate binding (ESS), parentheses standard error
[9] = Combined adamantyl hydroxylation pathway, parentheses 95% confidence interval

## Nn1nnc2ccccc21 [ABT, 1-aminobenzotriazole, reference compound]
[1]
  effect of inhibitor on formation of 5F-APINACA metabolites: completely blocked the formation of all metabolites

## O=C(NC12CC3CC(CC(C3)C1)C2)c1nn(CCCCCO)c2ccccc12 [5OH-APINACA]
[2]; [5]
  Vmax: 690 (650–730) pmol min^−1 mg protein^−1
  h (Hill coefficient): 1.4 (1.0–1.8)
[2]; [6]
  Km1: ((k2 + k3 + k4)/k1) 3.75 (0.21) µM
[2]; [7]
  kcat1/Km1: 0.238 (0.017) mL min^−1 nmol^−1
[2]; global fit to differential rate equations, rates normalized to total CYP (0.67 μM), parentheses standard error
  kcat1: k3 0.89 (0.04) min^−1
[2]; [8]
  Km2: ((k6 + k7 + k8)/k5) 122 (6) µM
  kcat2: k7 1.17 (0.05) min^−1
  kcat2/Km2: 0.0096 (0.0006) mL min^−1 nmol^−1
[3]; formation of the metabolite from 5F-APINACA, 0.1 mg/mL protein, parentheses 95% confidence interval
  Vmax: 465 (446–485) pmol min^−1 mg protein^−1
[3]; [6]
  Km1: ((k2 + k3 + k4)/k1) 5.69 (0.35) µM
[3]; [7]
  kcat1/Km1: 0.193 (0.015) mL min^−1 nmol^−1
[3]; global fit to differential rate equations, rates normalized to total CYP (0.38 μM), parentheses standard error
  kcat1: k3 1.10 (0.35) min^−1
[3]; [8]
  Km2: ((k6 + k7 + k8)/k5) 181 (10) µM
  kcat2: k7 1.23 (0.1) min^−1
  kcat2/Km2: 0.0065 (0.0013) mL min^−1 nmol^−1

## N-(1-adamantyl)-1-(5-pentyl)-1H-indazole-3-carboxamide [5F-APINACA]
[2]; [9]
  Ki (substrate inhibition): 220 (74–1300) µM
  Vmax: 465 (330–730) pmol min^−1 mg protein^−1
[2]; Combined adamantyl hydroxylation pathway, parentheses 95% confidence interval, read-out: Km or Kh
  Km: 3.8 µM
mice
  hypothermia in mice on suppression of metabolism by pan-CYP inhibitor ABT: increased hypothermia
[3]; [9]
  Ki (substrate inhibition): 300 (150–790) µM
  Km: 3.3 µM
  Vmax: 400 (330–510) pmol min^−1 mg protein^−1
[4]; CD-1 microsomes
  contribution of CYPs to metabolism: sole role of CYPs
[4]; human CYP inhibitors
  dominant isozyme carrying out metabolic reactions: Cyp3a11
[4]; implicated by inhibitor for CYP2C19
  other dominant contributors to adamantyl hydroxylation, but minor contributors to oxidative defluorination: Cyp2c37, Cyp2c50, and Cyp2c54
[1]; chemical inhibitor phenotyping
  dominant isozyme for both pathways: CYP3A4
  isozymes with minor contributions to metabolism: CYP2C8, 2C19, and 2D6

## CC(=O)N1CCN(c2ccc(OCC3COC(Cn4ccnc4)(c4ccc(Cl)cc4Cl)O3)cc2)CC1 (centres unmarked) [ketoconazole, reference compound]
[1]
  effect of inhibitor on formation of 5F-APINACA metabolites: inhibition of these pathways
